Source: article PMC8494816 (Scientific Reports, 2021)
One block for each compound: values may come before it.

Columns and labels:
[1] = system: patients with RUCC; settings: cited from earlier work; for efficacy in treating RUCC patients: phase IIa setting
[2] = system: CFA-induced hyperalgesia in female C57BL/6 mice; experiment: Mouse CFA-induced mechanical hyperalgesia model (von Frey); settings: oral twice daily, 48 h after CFA
Protocol: In this model, mechanical hyperalgesia was induced in female C57BL/6 mice (n = 9) by injecting CFA into the plantar surface of one hind paw and assessed using von Frey filaments. The filaments were used to stimulate the hind paw, and a behavioral response was measured depending on the strength of the von Frey filament used (expressed in [g]). […] Compounds were administered orally, twice daily, starting one hour before CFA injection. […] Mechanical hyperalgesia was induced in female C57BL/6 mice by injecting 30 µL of undiluted CFA into the medial left plantar hind paw. […] Mice were placed individually in transparent Plexiglas enclosures set on a wire mesh floor for at least 60 min prior to testing. Mechanical response thresholds were determined using calibrated von Frey monofilaments applied to the plantar surface of hind paws. The simplified up-down method[69] was used to estimate the 50% withdrawal threshold of contralateral and ipsilateral paws. […] All dose formulations were letter coded and administered to the animals by a technician not involved in conducting the behavioral von Frey testing. All von Frey measurements were performed by a second experimenter who was blinded to the treatments received by the animals. Upon completion of the experiments, mice were euthanized by exposure to carbon dioxide.

[3] = system: CFA-induced mechanical hyperalgesia in male Sprague Dawley rats; experiment: Rat CFA-induced mechanical hyperalgesia model (PAM, paw withdrawal threshold)
Protocol: Mechanical hyperalgesia was induced in 32 healthy male Sprague Dawley rats by injecting 25 µL of CFA (1 mg/mL) unilateral into the plantar surface of one hind paw. Mechanical hyperalgesia was measured using the Pressure Application Measurement apparatus (Ugo Basile, Comerio, Italy). Briefly, a linearly increasing pressure was applied to an area of ~ 50 mm^2 of the plantar side of the hind paw until a behavioral response (paw withdrawal) was observed, or until the pressure reached 1000-g force. The pressure at which the behavioral response occurred was recorded as the PWT. Both CFA-injected and contralateral PWTs were determined for each rat, in each treatment group, and at each time point of the study. […] All dose formulations were letter coded and administered to the animals by one technician not involved in conducting the behavioral PAM testing. All PAM measurements were performed by a second technician who was blinded to the treatments received by the animals.
All data are expressed as mean (or mean ± SD), unless otherwise indicated. Data were analyzed with either GraphPad Prism (v6.03, https://www.graphpad.com/scientific-software/prism/) or the Excel Fit software. For the rat hyperalgesia model, data were analyzed by computing the mean PWT for each treatment group, for CFA-injected and non-injected hind paws, and at each time point of the study. Mechanical hyperalgesia in vehicle control group was evaluated by carrying out an unpaired t-test between ipsilateral and contralateral paw values at each time point. The effect of the test compound on hyperalgesia was evaluated by performing a two-way repeated measures-ANOVA on ipsilateral paw values, followed by a Dunnett’s post-hoc test, provided that a main effect for treatment was detected. The effect of the test compound on contralateral response was evaluated following the same statistical procedure. […] A Grubbs’ test was also performed on individual values to reveal potential outliers. A p-value of < 0.05 was considered statistically significant.

[4] = target: T1, native channels from DRG (predominately P2X3 receptors) (Rattus norvegicus, UniProt P49654); experiment: Whole-cell patch-clamp assay in rat neurons (DRG); assay type: cell-based; settings: female Sprague Dawley rat neurons, α,β-meATP 10 µM
T1 construct: native channels from both DRG (predominately P2X3 receptors) and nodose ganglia (NDG, predominately P2X2/3 receptors) rat tissues; from tissue; host or cells: primary neurons from dorsal root ganglia (L6–L4) of female Sprague Dawley rats
T1 sequence (P49654 1-397): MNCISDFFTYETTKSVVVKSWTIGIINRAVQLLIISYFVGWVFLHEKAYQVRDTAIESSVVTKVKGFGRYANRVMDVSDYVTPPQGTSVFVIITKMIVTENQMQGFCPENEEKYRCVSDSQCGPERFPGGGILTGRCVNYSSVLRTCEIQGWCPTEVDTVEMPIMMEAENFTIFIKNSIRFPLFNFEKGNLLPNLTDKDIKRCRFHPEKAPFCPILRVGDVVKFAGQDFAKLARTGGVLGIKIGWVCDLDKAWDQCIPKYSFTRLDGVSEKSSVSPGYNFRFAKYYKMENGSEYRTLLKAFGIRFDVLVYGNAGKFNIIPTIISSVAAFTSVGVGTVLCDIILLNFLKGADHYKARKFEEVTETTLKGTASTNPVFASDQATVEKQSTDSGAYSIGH
Protocol: Experiments were performed under the whole-cell patch-clamp configuration at a holding potential of – 80 mV at room temperature. […] The cells were dissociated with Accumax, centrifuged at 1000 rpm for 3 min, re-suspended in manual patch-clamp buffer, and then plated in dishes at a density of ~ 50,000 cells/dish. The currents were recorded using HEKA amplifiers and Patchmaster software (HEKA Electronics). The bath solution contained 140 mM NaCl, 5 mM KCl, 1 mM CaCl2, 2 mM MgCl2, 25 mM HEPES, and 10 mM glucose, at pH 7.4. The intracellular solution contained 140 mM CsCl, 10 mM HEPES, and 10 mM BAPTA, at pH 7.0. […] The recordings were performed in a cumulative manner with 4- or 8-min incubation times per compound concentration. Hexokinase (50 U/mL) was added to reduce channel desensitization when recording human and rat P2X3 receptor neurons. A seal resistance of minimum 250 MΩ and a series resistance of less than 20 MΩ were applied as quality control parameters. The effect at each concentration of antagonist was determined according to the following equation: % response = (100 * Idrug)/Icontrol), where Icontrol was the peak current amplitude of the last agonist addition prior to incubation with the antagonist, and Idrug was the peak current amplitude in the presence of an antagonist. Each concentration of antagonist was tested on a minimum of three independent cells. […]

[5] = target: T2, rP2X3 receptors (Rattus norvegicus, UniProt P49654); experiment: cell-based
T2 sequence (P49654 1-397): T1 sequence (P49654 1-397)
Protocol: (§1) Cells were maintained in Dulbecco’s Modified Eagle Medium (DMEM) media (Sigma) supplemented with 10% fetal bovine serum (FBS) (Sigma) in a humidified incubator with 5% CO2 at 37 °C.
(§2) P2X receptor-induced changes in intracellular calcium levels were monitored using the calcium-chelating dye, Fluo-4AM (Molecular Probes), quantitated with a fluorescence imaging plate reader (FLEX/FLIPR station; Molecular Devices, Sunnyvale, CA, USA). Cells expressing P2X3 or P2X2/3 receptors were plated at a density of 15,000 cells/well in collagen-coated 384-well plates approximately 20 h before assay.

[6] = system: neurogenic plasma extravasation in female Sprague Dawley rats; experiment: Rat model of uterine neurogenic inflammation (mustard oil, Evans blue); assay type: in vivo; settings: i.v. bolus 0.7 mg/kg then infusion 0.2 mg/kg/h, vs vehicle, P < 0.01
[7] = system: vaginal hyperalgesia in female Sprague Dawley rats; experiment: Rat dyspareunia model (VMR to vaginal distension); settings: vs vehicle
Protocol: The visceromotor response (VMR) to vaginal distension using an inflated vaginal balloon was determined by counting the number of abdominal muscle contractions via electromyography (EMG) in conscious animals as an objective measure of vaginal sensitivity. […] The VMR response to vaginal distension was measured at week five (on-drug) and week six (one week off-drug) post-implantation of uterine horn pieces.
The VMR to vaginal distension was used in conscious animals as an objective measure of vaginal sensitivity. […] In addition, to measure the VMR response, two Teflon-coated wire electrodes (AS632; Cooner Wire, USA) were sutured in the external oblique abdominal muscle, and then tunneled subcutaneously to be exteriorized at the base of the neck for future access. […] On the day of VMR assessment, a lubricated small balloon (embolectomy catheter 5F, 1 cm in length; IsoMed, France) was inserted into the mid-vaginal canal. […] The magnitude of the VMR at each vaginal distension test was quantified by counting manually the number of EMG spike bursts (or abdominal muscle contractions) per period of 40 s (= 0.1 mL distension volume). […] For each animal, the cumulative number of abdominal contractions was calculated and plotted against vaginal distension volume, and the corresponding AUC was calculated. […]
All data are expressed as mean (or mean ± SD), unless otherwise indicated.

[8] = Half-life in rats; settings: rat, in vivo; data not shown
[9] = target: T3, homotrimeric hP2X7 receptor (Homo sapiens, UniProt Q99572); experiment: Recombinant cell line selectivity assay
T3 sequence (Q99572 1-595): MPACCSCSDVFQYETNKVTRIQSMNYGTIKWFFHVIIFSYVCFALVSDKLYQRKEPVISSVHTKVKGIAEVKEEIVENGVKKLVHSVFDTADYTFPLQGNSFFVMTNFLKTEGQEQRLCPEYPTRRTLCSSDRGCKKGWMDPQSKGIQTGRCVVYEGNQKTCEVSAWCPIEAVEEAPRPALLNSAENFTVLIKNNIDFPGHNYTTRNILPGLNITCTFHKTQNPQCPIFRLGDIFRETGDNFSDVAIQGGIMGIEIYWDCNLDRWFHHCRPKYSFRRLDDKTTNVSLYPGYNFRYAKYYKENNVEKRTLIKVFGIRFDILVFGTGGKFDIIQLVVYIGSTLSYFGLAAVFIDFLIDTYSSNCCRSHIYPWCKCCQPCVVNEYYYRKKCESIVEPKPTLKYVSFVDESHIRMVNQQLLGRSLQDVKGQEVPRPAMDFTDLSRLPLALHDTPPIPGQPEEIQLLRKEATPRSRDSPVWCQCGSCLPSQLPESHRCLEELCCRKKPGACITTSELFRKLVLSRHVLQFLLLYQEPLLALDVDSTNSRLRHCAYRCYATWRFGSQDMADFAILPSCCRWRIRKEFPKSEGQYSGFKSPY

[10] = Half-life in humans; settings: human, in vivo; data not shown
[11] = target: T4, homotrimeric hP2X4 receptor (Homo sapiens, UniProt Q99571); experiment: Recombinant cell line selectivity assay
T4 sequence (Q99571 1-388): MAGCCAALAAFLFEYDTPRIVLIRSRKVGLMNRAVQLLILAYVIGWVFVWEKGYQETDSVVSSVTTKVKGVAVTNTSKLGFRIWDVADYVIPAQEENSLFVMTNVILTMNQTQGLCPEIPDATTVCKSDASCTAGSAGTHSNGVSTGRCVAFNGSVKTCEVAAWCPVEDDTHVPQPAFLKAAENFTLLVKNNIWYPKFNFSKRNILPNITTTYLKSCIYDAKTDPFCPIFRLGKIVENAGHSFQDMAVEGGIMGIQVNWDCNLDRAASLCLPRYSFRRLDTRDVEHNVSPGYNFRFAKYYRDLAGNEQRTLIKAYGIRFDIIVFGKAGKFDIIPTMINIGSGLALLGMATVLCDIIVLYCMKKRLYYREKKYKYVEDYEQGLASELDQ

[12] = target: T5, hP2X1 receptors (Homo sapiens, UniProt P51575); experiment: Recombinant cell line selectivity assay
T5 sequence (P51575 1-399): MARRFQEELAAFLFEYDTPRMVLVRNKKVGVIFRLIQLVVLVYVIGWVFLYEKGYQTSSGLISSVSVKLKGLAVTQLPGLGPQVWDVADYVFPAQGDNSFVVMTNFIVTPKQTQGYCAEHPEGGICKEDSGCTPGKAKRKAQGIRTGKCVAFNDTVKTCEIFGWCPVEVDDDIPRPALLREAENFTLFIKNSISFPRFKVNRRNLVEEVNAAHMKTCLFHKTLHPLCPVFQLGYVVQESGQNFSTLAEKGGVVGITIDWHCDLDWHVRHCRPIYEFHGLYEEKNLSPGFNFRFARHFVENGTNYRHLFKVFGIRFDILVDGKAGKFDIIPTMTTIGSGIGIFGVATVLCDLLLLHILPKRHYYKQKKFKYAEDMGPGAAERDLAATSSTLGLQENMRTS

[13] = target: T6, rP2X2/3 receptors (Rattus norvegicus, UniProt P49653+P49654); experiment: FLIPR calcium flux assay, recombinant cells; assay type: cell-based
T6 sequence (P49654 1-397): T1 sequence (P49654 1-397)
T6 sequence (P49653 1-472): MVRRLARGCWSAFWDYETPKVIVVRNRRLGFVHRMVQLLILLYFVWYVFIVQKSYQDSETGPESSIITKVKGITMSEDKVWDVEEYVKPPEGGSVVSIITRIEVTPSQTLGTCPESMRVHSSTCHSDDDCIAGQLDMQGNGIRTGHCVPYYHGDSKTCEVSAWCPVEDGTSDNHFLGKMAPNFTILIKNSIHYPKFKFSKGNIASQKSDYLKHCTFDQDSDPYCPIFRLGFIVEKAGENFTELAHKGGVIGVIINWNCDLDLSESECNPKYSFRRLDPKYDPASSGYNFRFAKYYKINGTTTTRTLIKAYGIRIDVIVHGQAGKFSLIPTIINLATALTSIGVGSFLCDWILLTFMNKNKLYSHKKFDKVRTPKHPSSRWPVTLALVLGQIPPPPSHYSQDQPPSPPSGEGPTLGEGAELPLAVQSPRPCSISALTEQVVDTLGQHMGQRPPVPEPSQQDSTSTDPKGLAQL
Protocol: as §1, §2

[14] = target: P2X3 homotrimeric receptors; set-up: method as in PMID 30902655; settings: cited from earlier work
[15] = target: P2X2/3 heterotrimeric receptors; set-up: method as in PMID 30902655; settings: cited from earlier work
[16] = system: animal models; set-up: method as in PMID 30902655; settings: cited from earlier work

SMILES: C[C@@H](Cn1c(=O)[nH]/c(=N\c2ccc(Oc3ccccn3)cc2)n(Cc2ccc(Cl)cc2)c1=O)C(=O)O [S-600918]
cough reduction and taste disturbance ([1]; patients with RUCC (n = 31)): reduce cough with a low incidence of taste disturbance
efficacy in treating RUCC patients [1]: shown efficacy

IC50 [4]: ~0.019 µM
IC50 [5]: 0.004 µM
half-life [8]: ~2.8 h
IC50 [9]: 50 µM
half-life [10]: > 24 h
IC50 [11]: 50 µM
IC50 [12]: 50 µM
IC50 [13]: 0.023 µM
SMILES: Cc1cnc(-c2cc(O[C@@H]3CCOC3)cc(C(=O)N[C@H](C)c3cnc(C(F)(F)F)nc3)c2)s1 [eliapixant]
minimal effective oral dose, reversal of hyperalgesia in CFA-injected paw [2]: 5 mg/kg
receptor occupancy corresponding to plasma exposures at which efficacy (reversal of hyperalgesia > 50%) was observed ([3]; rat CFA model, data not shown): 80%
effect on mechanical hyperalgesia (PWT), low dose ([3]; rat, oral 1 mg/kg, n = 8, P < 0.05): moderate and statistically significant at 2 h post-treatment
effect on mechanical hyperalgesia (PWT), medium dose ([3]; rat, oral 3 mg/kg, n = 8, 2, 4, 6 h, P < 0.05 to 0.0001): robust and significant at each time point of the study
effect on mechanical hyperalgesia (PWT), high dose ([3]; rat, oral 10 mg/kg, n = 8, 2, 4, 6 h, P < 0.05 to 0.0001): robust and significant at each time point of the study
effect on mechanical hyperalgesia (Paw Withdrawal Threshold) ([3]; rat, oral, 1, 3, 10 mg/kg, 24 h after CFA, 2, 4, 6 h post-dose): significantly reduced mechanical hyperalgesia in a dose-dependent manner
number of blue dots on the skin (neurogenic plasma extravasation) [6]: significantly reduced number of blue dots on the skin
vaginal hyperalgesia (AUC of cumulative abdominal contractions), 1 week off drug ([7]; 15 mg/kg oral twice daily weeks 4-5, 6 weeks post-implantation, P < 0.01): significantly decreased vaginal hyperalgesia
vaginal hyperalgesia (AUC of cumulative abdominal contractions), on drug ([7]; 15 mg/kg oral twice daily, 5 weeks post-implantation, P < 0.05): significantly decreased vaginal hyperalgesia
tolerability and taste-related adverse events ([1]; phase IIa and Ph IIb study in patients with RUCC): well tolerated with a low rate of mild taste-related adverse events
efficacy in treating RUCC patients [1]: shown efficacy

SMILES: COc1cc(C(C)C)c(Oc2cnc(N)nc2N)cc1S(N)(=O)=O [gefapixant]
taste-related AEs, participants ([1]; latest phase III data, RUCC): 58–69%

SMILES: CNC(=O)c1cc(F)c(-c2nc3cc(C)ccn3c2C[C@H]2CN(C(=O)OC)CCO2)c(F)c1 [BLU-5937]
IC50 [14]: 0.025 µM
IC50 [15]: > 24 µM
antitussive efficacy and taste disturbances in animal models [16]: antitussive efficacy with a lack of taste disturbances
primary endpoint in phase IIa study ([1]; subjects with RUCC): did not reach its desired primary endpoint
